Measurements as given in ChEMBL document CHEMBL4725289, “Structure-activity relationship studies for the development of inhibitors of murine adipose triglyceride lipase (ATGL)” (Bioorg Med Chem, 2020).

Key:
[1] = In vivo inhibition of ATGL in mouse assessed as decrease in plasma fatty acid release at 200 uM, ip measured up to 8 hrs; format: functional; settings: time hrs <=8
[2] = biological target: T1, Patatin-like phospholipase domain-containing protein 2 (Mus musculus) (UniProt Q8BJ56); assay: Inhibition of murine ATGL expressed in COS-7 cells at 200 uM relative to control; format: cell-based
T1 sequence (whole entry): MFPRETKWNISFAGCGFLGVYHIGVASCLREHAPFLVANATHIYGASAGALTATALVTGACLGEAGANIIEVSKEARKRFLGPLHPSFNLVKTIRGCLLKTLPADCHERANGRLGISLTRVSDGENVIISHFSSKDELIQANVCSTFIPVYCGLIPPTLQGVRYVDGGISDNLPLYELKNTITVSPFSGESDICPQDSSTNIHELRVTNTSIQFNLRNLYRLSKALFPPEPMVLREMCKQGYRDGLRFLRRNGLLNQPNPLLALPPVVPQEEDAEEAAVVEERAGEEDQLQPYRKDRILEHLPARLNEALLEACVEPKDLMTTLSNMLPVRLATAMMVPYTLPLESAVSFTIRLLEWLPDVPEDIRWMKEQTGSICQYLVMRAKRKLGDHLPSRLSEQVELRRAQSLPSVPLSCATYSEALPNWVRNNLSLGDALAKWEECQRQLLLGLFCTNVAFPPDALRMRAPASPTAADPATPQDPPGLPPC

[3] = biological target: T2, Patatin-like phospholipase domain-containing protein 2 (Mus musculus, UniProt Q8BJ56); assay: Inhibition of murine ATGL expressed in COS-7 cells; format: cell-based
T2 sequence (Q8BJ56 whole entry): T1 sequence (whole entry)

[4] = Inhibition of isoproterenol-stimulated lipolysis in ATGL-ko mouse at 200 uM, ip after 2 hrs; format: functional

Structure (SMILES): CCOC(=O)c1cccc(-c2ccc(N(C)C)cc2)c1
- inhibition in vivo at 200 µM [1]: 40%
- inhibition [2]: 87%
- IC50 [3]: 40 µM
- inhibition in vivo at 200 µM [4]: 60%
